Values of other authors in patent US8426341B2, “Herbicide formulation” (priority 2005, dated 2013).

Settings: acid form / neutral form equilibrium; exemplary values

Compound	pKas (single or first listed value)
C[C@@H](Oc1ccc(Oc2ccc(C(F)(F)F)cn2)cc1)C(=O)O [Fluazifop-p]	2.98
O=C(O)CCCOc1ccc(Cl)cc1Cl [2,4-DB]	4.8
O=C(O)c1c(Cl)ccc2cc(Cl)cnc12 [Quinclorac]	4.34
Nc1c(Cl)c(Cl)nc(C(=O)O)c1Cl [Picloram]	2.3
CC(Oc1ccc(Oc2ccc(Cl)cc2Cl)cc1)C(=O)O (centres unmarked) [Diclofop]	3.57
O=C(O)COc1nc(Cl)c(Cl)cc1Cl [Triclopyr, 3,5,6-trichloro-2-pyridyloxyacetic acid]	2.68
CC(C)N1C(=O)c2ccccc2NS1(=O)=O [Bentazon]	3.30
CP(=O)(O)CCC(N)C(=O)O (centres unmarked) [Glufosinate]	2
COc1c(Cl)ccc(Cl)c1C(=O)O [Dicamba, 3,6-dichloro-O-anisic acid]	1.87
O=C(O)c1cc(Oc2ccc(C(F)(F)F)cc2Cl)ccc1[N+](=O)[O-] [Acifluorfen]	3.86
N#Cc1cc(Br)c(O)c(Br)c1 [Bromoxynil]	4.06
CC(Oc1ccc(Oc2ncc(C(F)(F)F)cc2Cl)cc1)C(=O)O (centres unmarked) [Haloxyfop]	2.9
C[C@@H](Oc1ccc(Oc2cnc3cc(Cl)ccc3n2)cc1)C(=O)O [Quizalofop-p]	1.25
Imazamethbenz	2.9
CC(C)C1(C)N=C(c2nc3ccccc3cc2C(=O)O)NC1=O (centres unmarked) [Imazaquin]	3.8

Same assay, conditions: second value for compounds with more than one acidic hydrogen

Compound	pKas (second listed value)
O=C(O)COc1nc(Cl)c(Cl)cc1Cl [Triclopyr, 3,5,6-trichloro-2-pyridyloxyacetic acid]	3.97
CP(=O)(O)CCC(N)C(=O)O (centres unmarked) [Glufosinate]	2.9
